Values quoted from earlier work as cited in US9707259B2, “Magnetic diffusional patch” (METUAS MEDIKAL SAGLIK HIZ-METLERI DANISMANLIK IHRACAT …, priority 2011, dated 2017).

Key:
[1] = test system: activated human monocytes
[2] = test system: thromboxane and leukotriene B4 synthesis
[3] = experimental animals, rheumatoid arthritis

| Compound | inflammation mediators [1] | synthesis of thromboxane and leukotriene B4 from eicosanoids [2] | effect on lipooxygenase enzyme (lipooxygenase enzymes) | effect on cyclooxygenase (COX) enzyme (cyclooxygenase (COX)) | levels of pro-inflammation cytokines TNF-alpha and interleukin (IL)-1beta (rheumatoid arthritis; [3]) | severity of the disease (rheumatoid arthritis; [3]) | induced arthritis with the aid of collagen (rheumatoid arthritis; experimental studies) |
| --- | --- | --- | --- | --- | --- | --- | --- |
| CC1=CCC(O)(C(C)C)CC1 (stereo not shown) [4-terpineol] | suppress | – | – | – | – | – | – |
| CC1=CC(=O)C(C(C)C)=CC1=O [thymoquinone] | – | inhibits | blocks | blocks | reduction | decreases | able to suppress |
